From US5137872A, “Growth hormone-releasing factor analogs” (Pitman-Moore, Inc., priority 1989, dated 1992)

Test system: serum ovine somatotropin (oST)
Test: Serum ovine somatotropin (oST) by RIA after subcutaneous injection of GRF compounds in lambs
Assay type: in vivo
Procedure: Whether lambs (40-45 kg) were injected subcutaneously with the following GRF compounds in a phosphate buffered saline vehicle (pH 7):
10.0 ug/kg recombinant native hGRF (rhGRF)
5.0 ug/kg synthetic native hGRF (shGRF)
5.0 ug/kg [Pro^0, Gly^15, Met^27 ]-hGRF(1-44)-NH2 (aGRF)
There were 4 animals per treatment group and each treatment was repeated 3 times to give a total of 12 samples/time point/treatment. The animals were bled at time 0, 10, 20, 30, 60 and 120 minutes after injection and analyzed for serum ovine somatotropin (oST) by radioimmunoassay (RIA).
Example 4 was repeated using the following treatments:
20.0 ug/kg recombinant native hGRF (rhGRF)
10.0 ug/kg synthetic native hGRF (shGRF)

[1] = 5.0 ug/kg subcutaneous, FIG. 1 (Example 4)
[2] = 10.0 ug/kg subcutaneous, FIG. 2 (Example 5)

| Molecule | serum oST concentration at 120 minutes post injection versus time 0 [1] | serum oST concentration at 120 minutes post injection versus time 0 [2] | duration of in vivo biological activity [1] | duration of in vivo bioactivity compared to native GRF [2] |
| --- | --- | --- | --- | --- |
| CC[C@H](C)[C@H](NC(=O)[C@H](C)NC(=O)[C@H](CC(=O)O)NC(=O)[C@H](C)NC(=O)[C@@H](N)Cc1ccc(O)cc1)C(=O)N[C@@H](Cc1ccccc1)C(=O)N[C@H](C(=O)N[C@@H](CC(N)=O)C(=O)N[C@@H](CO)C(=O)N[C@@H](Cc1ccc(O)cc1)C(=O)N[C@@H](CCCNC(=N)N)C(=O)N[C@@H](CCCCN)C(=O)N[C@H](C(=O)N[C@@H](CC(C)C)C(=O)NCC(=O)N[C@@H](CCC(N)=O)C(=O)N[C@@H](CC(C)C)C(=O)N[C@@H](CO)C(=O)N[C@@H](C)C(=O)N[C@@H](CCCNC(=N)N)C(=O)N[C@@H](CCCCN)C(=O)N[C@@H](CC(C)C)C(=O)N[C@@H](CC(C)C)C(=O)N[C@@H](CCC(N)=O)C(=O)N[C@@H](CC(=O)O)C(=O)N[C@H](C(=O)N[C@@H](CCSC)C(=O)N[C@@H](CO)C(=O)N[C@@H](CCCNC(=N)N)C(=O)N[C@@H](CCC(N)=O)C(=O)N[C@@H](CCC(N)=O)C(=O)NCC(=O)N[C@@H](CCC(=O)O)C(=O)N[C@@H](CO)C(=O)N[C@@H](CC(N)=O)C(=O)N[C@@H](CCC(N)=O)C(=O)N[C@@H](CCC(=O)O)C(=O)N[C@@H](CCCNC(=N)N)C(=O)NCC(=O)N[C@@H](C)C(=O)N[C@@H](CCCNC(=N)N)C(=O)N[C@@H](C)C(=O)N[C@@H](CCCNC(=N)N)C(=O)N[C@@H](CC(C)C)C(N)=O)[C@@H](C)CC)C(C)C)[C@@H](C)O [native synthetic hGRF, reference compound] | returned to baseline serum oST levels | returned to baseline serum oST levels | – | – |
| [Pro^0, Gly^15, Met^27 ]-hGRF(1-44)-NH2 | oST concentrations greater than those at time 0 | oST concentrations greater than those at time 0 | prolonged in vivo biological activity | prolonged in vivo bioactivity |
